Values quoted from earlier work in PubChem BioAssay AID1259409 (Chemical Carcinogenesis Research Information System (CCRIS), 2018).

System: rodent chemically induced tumor inhibition, incidence and multiplicity
Experiment: CCRIS tumor inhibitor studies
Conditions: Carcinogen: 7,12-DIMETHYLBENZ[A]ANTHRACENE, 57-97-6

**Q.** What does the source list for `CC1=C(/C=C/C(C)=C/C=C/C(C)=C/C(=O)O)C(C)(C)CCC1`?
**A.** tumour outcome (control, treated, inhibition, significance) (Dose [Inhibitor]: 0, 2 NMOL IN 200 µL ACETONE APPLIED 30 MIN PRIOR TO EACH PROMOTER DOSE 2/WK FOR 25 WK BEGINNING 1 WK POST CARCINOGEN DOS, Route [Inhibitor]: DERMAL, Species: MOUSE, Strain/Sex: CD-1/FEMALE, Target Tissue: Type of Lesion: SKIN: PAPILLOMA, Dose [Carcinogen]: 200 NMOL IN 200 µL ACETONE ONCE, Promoter: 12-O-TETRADECANOYLPHORBOL-13-ACETATE, 16561-29-8): 90%, 83%, 8%, not calculated; tumour outcome (control, treated, inhibition, significance) (Dose [Inhibitor]: 0, 2 NMOL IN 200 µL ACETONE APPLIED 30 MIN PRIOR TO EACH PROMOTER DOSE 2/WK FOR 25 WK BEGINNING 1 WK POST CARCINOGEN DOS, Route [Inhibitor]: DERMAL, Species: MOUSE, Strain/Sex: CD-1/FEMALE, Target Tissue: Type of Lesion: SKIN: PAPILLOMA, Dose [Carcinogen]: 200 NMOL IN 200 µL ACETONE ONCE, Promoter: MIREX, 2385-85-5): 100%, 100%, 0%, not significant; tumour outcome (control, treated, inhibition, significance) (Dose [Inhibitor]: 0, 3 NMOL IN 0.1 ML ACETONE 2/WK APPLIED 40 MIN PRIOR TO EACH PROMOTER DOSE FOR 20 WK (STUDY DURATION: 21 WK), Route [Inhibitor]: DERMAL, Species: MOUSE, Strain/Sex: ICR/FEMALE, Target Tissue: Type of Lesion: SKIN: PAPILLOMA, Dose [Carcinogen]: 100 UG IN 0.1 ML ACETONE ONCE, Promoter: 12-0-TETRADECANOYLPHORBOL-13-ACETATE, 16561-29-8): 99%, 68%, 31%, p<0.01; tumour outcome (control, treated, inhibition, significance) (Dose [Inhibitor]: 0, 5 NMOL IN 200 µL ACETONE APPLIED 30 MIN PRIOR TO EACH PROMOTER DOSE 2/WK FOR 25 WK BEGINNING 1 WK POST CARCINOGEN DOS, Route [Inhibitor]: DERMAL, Species: MOUSE, Strain/Sex: CD-1/FEMALE, Target Tissue: Type of Lesion: SKIN: PAPILLOMA, Dose [Carcinogen]: 200 NMOL IN 200 µL ACETONE ONCE, Promoter: 12-O-TETRADECANOYLPHORBOL-13-ACETATE, 16561-29-8): 90%, 76%, 16%, not calculated; tumour outcome (control, treated, inhibition, significance) (Dose [Inhibitor]: 0, 5 NMOL IN 200 µL ACETONE APPLIED 30 MIN PRIOR TO EACH PROMOTER DOSE 2/WK FOR 25 WK BEGINNING 1 WK POST CARCINOGEN DOS, Route [Inhibitor]: DERMAL, Species: MOUSE, Strain/Sex: CD-1/FEMALE, Target Tissue: Type of Lesion: SKIN: PAPILLOMA, Dose [Carcinogen]: 200 NMOL IN 200 µL ACETONE ONCE, Promoter: MIREX, 2385-85-5): 100%, 100%, 0%, not significant; tumour outcome (control, treated, inhibition, significance) (Dose [Inhibitor]: 0, 10 UG IN 0.2 ML ACETONE 1/WK FOR 5 WK APPLIED 60 MIN PRIOR TO EACH PROMOTER DOSE BEGINNING 1 WK POST CARCINOGEN DOSE, Route [Inhibitor]: DERMAL, Species: MOUSE, Strain/Sex: SENCAR/FEMALE, Target Tissue: Type of Lesion: SKIN: PAPILLOMA, Dose [Carcinogen]: 20 UG IN 0.2 ML ACETONE ONCE, Promoter: 12-O-TETRADECANOYLPHORBOL-13-ACETATE, 16561-29-8): 50%, 10%, 80%, p<0.0001; tumour outcome (control, treated, inhibition, significance) (Dose [Inhibitor]: 0, 10 UG IN 0.2 ML ACETONE 1/WK FOR 20 WK APPLIED 60 MIN PRIOR TO EACH PROMOTER DOSE BEGINNING 1 WK POST CARCINOGEN DOSE, Route [Inhibitor]: DERMAL, Species: MOUSE, Strain/Sex: SENCAR/FEMALE, Target Tissue: Type of Lesion: SKIN: PAPILLOMA, Dose [Carcinogen]: 20 UG IN 0.2 ML ACETONE ONCE, Promoter: 12-O-TETRADECANOYLPHORBOL-13-ACETATE, 16561-29-8): 95%, 55%, 42%, p<0.05; tumour outcome (control, treated, inhibition, significance) (Dose [Inhibitor]: 0, 10 UG IN 0.2 ML ACETONE 2/WK FOR 19 WK BEGINNING 15 WK POST PROMOTION TREATMENT (STUDY DURATION: 49 WK), Route [Inhibitor]: DERMAL, Species: MOUSE, Strain/Sex: SENCAR/FEMALE, Target Tissue: Type of Lesion: SKIN: CARCINOMA, Dose [Carcinogen]: 20 UG IN 0.2 ML ACETONE ONCE, Promoter: 12-O-TETRADECANOYLPHORBOL-13-ACETATE, 16561-29-8): 99%, 54%, 45%, p<0.01; tumour outcome (control, treated, inhibition, significance) (Dose [Inhibitor]: 0, 10 UG IN 0.2 ML ACETONE 2/WK FOR 19 WK BEGINNING POST PROMOTION TREATMENT (STUDY DURATION: 49 WK), Route [Inhibitor]: DERMAL, Species: MOUSE, Strain/Sex: SENCAR/FEMALE, Target Tissue: Type of Lesion: SKIN: CARCINOMA, Dose [Carcinogen]: 20 UG IN 0.2 ML ACETONE ONCE, Promoter: 12-O-TETRADECANOYLPHORBOL-13-ACETATE, 16561-29-8): 88%, 52%, 41%, p<0.01; tumour outcome (control, treated, inhibition, significance) (Dose [Inhibitor]: 0, 10 UG IN 0.2 ML ACETONE 2/WK FOR 19 WK BEGINNING POST PROMOTION TREATMENT (STUDY DURATION: 49 WK), Route [Inhibitor]: DERMAL, Species: MOUSE, Strain/Sex: SENCAR/FEMALE, Target Tissue: Type of Lesion: SKIN: CARCINOMA, Dose [Carcinogen]: 20 UG IN 0.2 ML ACETONE ONCE, Promoter: MEZEREIN, 34807-41-5): 100%, 65%, 35%, p<0.01; tumour outcome (control, treated, inhibition, significance) (Dose [Inhibitor]: 0, 10 UG IN 0.2 ML ACETONE 2/WK FOR 20 WK APPLIED 60 MIN PRIOR TO EACH PROMOTER DOSE BEGINNING 1 WK POST CARCINOGEN DOSE, Route [Inhibitor]: DERMAL, Species: MOUSE, Strain/Sex: SENCAR/FEMALE, Target Tissue: Type of Lesion: SKIN: PAPILLOMA, Dose [Carcinogen]: 20 UG IN 0.2 ML ACETONE ONCE, Promoter: MEZEREIN, 34807-41-5): 86%, 56%, 35%, p<0.05; tumour outcome (control, treated, inhibition, significance) (Dose [Inhibitor]: 0, 30 UG/G OF DIET FOR DURATION OF STUDY (STUDY DURATION: 35 WK), Route [Inhibitor]: ORAL, Species: MOUSE, Strain/Sex: SENCAR/FEMALE, Target Tissue: Type of Lesion: SKIN: PAPILLOMA, Dose [Carcinogen]: 25.5 UG IN 0.2 ML ACETONE 1/WK FOR 20 WK, Promoter: NONE USED): 100%, 90%, 10%, not significant (at 20 wk); tumour outcome (control, treated, inhibition, significance) (Dose [Inhibitor]: 0, 30 UG/G OF DIET FOR DURATION OF STUDY (STUDY DURATION: 35 WK), Route [Inhibitor]: ORAL, Species: RAT, Strain/Sex: SENCAR/FEMALE, Target Tissue: Type of Lesion: SKIN: CARCINOMA, Dose [Carcinogen]: 25.5 UG IN 0.2 ML ACETONE 1/WK FOR 20 WK, Promoter: NONE USED): 24%, 19%, 21%, not significant; tumour outcome (control, treated, inhibition, significance) (Dose [Inhibitor]: 0, 30 UG/G OF DIET FOR DURATION OF STUDY (STUDY DURATION: 40 WK), Route [Inhibitor]: ORAL, Species: MOUSE, Strain/Sex: SENCAR/FEMALE, Target Tissue: Type of Lesion: SKIN: CARCINOMA, Dose [Carcinogen]: 20 UG IN 0.2 ML OF ACETONE ONCE, Promoter: 12-O-TETRADECANOYLPHORBOL-13-ACETATE, 16561-29-8): 30%, 11%, 63%, p=0.027; tumour outcome (control, treated, inhibition, significance) (Dose [Inhibitor]: 0, 30 UG/G OF DIET FOR DURATION OF STUDY (STUDY DURATION: 40 WK), Route [Inhibitor]: ORAL, Species: MOUSE, Strain/Sex: SENCAR/FEMALE, Target Tissue: Type of Lesion: SKIN: CARCINOMA, Dose [Carcinogen]: 20 UG IN 0.2 ML OF ACETONE ONCE, Promoter: MEZEREIN, 34807-41-5): 31%, 5%, 84%, p=0.002; tumour outcome (control, treated, inhibition, significance) (Dose [Inhibitor]: 1.7 NMOL IN 0.2 ML ACETONE 1 HR PRIOR TO EACH PROMOTER DOSE FOR 12 WK (STUDY DURATION: 14 WK), Route [Inhibitor]: DERMAL, Species: MOUSE, Strain/Sex: SENCAR/FEMALE, Target Tissue: Type of Lesion: SKIN: PAPILLOMA, Dose [Carcinogen]: 200 NMOL IN 0.2 ML ACETONE ONCE, Promoter: 12-O-TETRADECANOYLPHORBOL-13-ACETATE, 16561-29-8): 100%, 100%, 0%, not calculated; tumour outcome (control, treated, inhibition, significance) (Dose [Inhibitor]: 1.7 NMOL IN 0.2 ML ACETONE 1 HR PRIOR TO EACH PROMOTER DOSE FOR 20 WK (STUDY DURATION: 22 WK), Route [Inhibitor]: DERMAL, Species: MOUSE, Strain/Sex: CD-1/FEMALE, Target Tissue: Type of Lesion: SKIN: PAPILLOMA, Dose [Carcinogen]: 200 NMOL IN 0.2 ML ACETONE ONCE, Promoter: 12-O-TETRADECANOYLPHORBOL-13-ACETATE, 16561-29-8): 94%, 80%, 15%, not calculated; tumour outcome (control, treated, inhibition, significance) (Dose [Inhibitor]: 1.7 NMOL IN 0.2 ML ACETONE 2/WK 1 HR BEFORE EACH PROMOTER APPLICATION STARTING 14 D AFTER CARCINOGEN APPLICATION AND CON, Route [Inhibitor]: DERMAL, Species: MOUSE, Strain/Sex: CD-1/FEMALE, Target Tissue: Type of Lesion: SKIN: PAPILLOMA, Dose [Carcinogen]: 0.2 UMOL IN 0.2 ML ACETONE ONCE, Promoter: 12-O-TETRADECANOYLPHORBOL-13-ACETATE, 16561-29-8): 100%, 90%, 10%, not significant; tumour outcome (control, treated, inhibition, significance) (Dose [Inhibitor]: 3, 30 UG IN DIET FOR DURATION OF STUDY (STUDY DURATION: 44 WK), Route [Inhibitor]: ORAL, Species: MOUSE, Strain/Sex: SENCAR/FEMALE, Target Tissue: Type of Lesion: SKIN: PAPILLOMA, Dose [Carcinogen]: 20 UG IN 0.2 ML ACETONE ONCE, Promoter: 12-O-TETRADECANOYLPHORBOL-13-ACETATE, 16561-29-8): 100%, 100%, 0%, not significant; tumour outcome (control, treated, inhibition, significance) (Dose [Inhibitor]: 3, 30 UG/G OF DIET FOR DURATION OF STUDY BEGINNING POST CARCINOGEN DOSE (STUDY DURATION: 40 WK), Route [Inhibitor]: ORAL, Species: MOUSE, Strain/Sex: SENCAR/FEMALE, Target Tissue: Type of Lesion: SKIN: CARCINOMA, Dose [Carcinogen]: 20 UG IN 0.2 ML ACETONE ONCE AT 7 WK OF AGE, Promoter: 12-O-TETRADECANOYLPHORBOL-13-ACETATE, 16561-29-8): 12/38 (32%), 3/30 (10%), 69%, p<0.05; tumour outcome (control, treated, inhibition, significance) (Dose [Inhibitor]: 3, 30 UG/G OF DIET FOR DURATION OF STUDY BEGINNING POST CARCINOGEN DOSE (STUDY DURATION: 40 WK), Route [Inhibitor]: ORAL, Species: MOUSE, Strain/Sex: SENCAR/FEMALE, Target Tissue: Type of Lesion: SKIN: CARCINOMA, Dose [Carcinogen]: 20 UG IN 0.2 ML ACETONE ONCE AT 7 WK OF AGE, Promoter: MEZEREIN, 34807-41-5): 12/39 (31%), 5/40 (13%), 58%, p<0.05
